In patent US10913727B2, “Modulators of the integrated stress pathway” (Calico Life Sciences LLC, priority 2016, dated 2021) one finds EC50 data, which are given here for 32 compounds.

The assay concerns HEK293T cells carrying the ATF4 luciferase reporter. The assay can be described thus: ATF4-Luc assay, in vitro model of Vanishing Cell White Matter Disease (VWMD). The settings on record: Homo sapiens, HEK-293T, 1 μg/mL tunicamycin, 7 hours, One Glo luminescence. It counts as cell-based. In outline:
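Compound at 200 nM and tunicamycin at 1 μg/mL were given together for 7 h to HEK293T cells stably transduced with an ATF4 5′-UTR-driven firefly luciferase reporter. Read-out by luminescence, reported as EC50.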
`O=C(COc1ccc(Cl)c(Cl)c1)NC12CC(NC(=O)c3cnc(-c4ccccc4)o3)(C1)C2` [Compound 740, N-{3-[2-(3,4-dichlorophenoxy)acetamido]bicyclo[1.1.1]pentan-1-yl}-2-phenyl-1,3-oxazole-5-carboxamide]: the concentration giving a half-maximal response (EC50) (in general, the midpoint of the concentration-response curve) is under 50 nM.

With `O=C(COc1ccc(Cl)c(F)c1)NC12CC(NC(=O)c3ccc(-c4ccco4)cn3)(C1)C2` [Compound 267, N-{3-[2-(4-chloro-3-fluorophenoxy)acetamido]bicyclo[1.1.1]pentan-1-yl}-5-(furan-2-yl)pyridine-2-carboxamide], the EC50 is under 50 nM.

Regarding `O=C(COc1ccc(Cl)c(F)c1)NC12CCC(NC(=O)c3cnon3)(CC1)CC2O` (centres unmarked) [Compound 634, N-{4-[2-(4-chloro-3-fluorophenoxy)acetamido]-3-hydroxybicyclo[2.2.2]octan-1-yl}-1,2,5-oxadiazole-3-carboxamide], the EC50 is over 2000 nM.

For the compound `O=C(COc1ccc(Cl)c(F)c1)NC12CC(NC(=O)c3csc(-c4ccccc4)n3)(C1)C2` [Compound 339, N-{3-[2-(4-chloro-3-fluorophenoxy)acetamido]bicyclo[1.1.1]pentan-1-yl}-2-phenyl-1,3-thiazole-4-carboxamide], the EC50 is under 50 nM.

Regarding `Cc1nc(C(=O)NC23CCC(NC(=O)COc4ccc(Cl)c(F)c4)(CC2)C(O)C3)co1` (centres unmarked) [Compound 467, N-{4-[2-(4-chloro-3-fluorophenoxy)acetamido]-3-hydroxybicyclo[2.2.2]octan-1-yl}-2-methyl-1,3-oxazole-4-carboxamide], the EC50 lay in the range of 50 to 250 nM.

As for `O=C(COc1ccc(Cl)c(F)c1)NC12CCC(NC(=O)c3ccc4oc(=O)ccc4c3)(CC1)[C@@H](O)C2` [Compound 407, N-{(2S)-4-[2-(4-chloro-3-fluorophenoxy)acetamido]-2-hydroxybicyclo[2.2.2]octan-1-yl}-2-oxo-2H-1-benzopyran-6-carboxamide], the EC50 is 1000 to 2000 nM.

In the case of `O=C(COc1ccc(Cl)c(F)c1)NC12CCC(NC(=O)c3cccs3)(CC1)CC2O` (centres unmarked) [Compound 611, N-{4-[2-(4-chloro-3-fluorophenoxy)acetamido]-3-hydroxybicyclo[2.2.2]octan-1-yl}thiophene-2-carboxamide], the EC50 is under 50 nM.

For `Cc1cncc(C(=O)NC23CCC(NC(=O)COc4ccc(Cl)c(F)c4)(CC2)C[C@@H]3O)n1` [Compound 734, N-{(2S)-4-[2-(4-chloro-3-fluorophenoxy)acetamido]-2-hydroxybicyclo[2.2.2]octan-1-yl}-6-methylpyrazine-2-carboxamide], the EC50 is under 50 nM.

In the case of `Cc1cn2ccnc(NC34CC(NC(=O)COc5ccc(Cl)c(F)c5)(C3)C4)c2n1` [Compound 463, 2-(4-chloro-3-fluorophenoxy)-N-{3-[(2-methylimidazo[1,2-a]pyrazin-8-yl)amino]bicyclo[1.1.1]pentan-1-yl}acetamide], the EC50 was 50 to 250 nM.

With `O=C(COc1ccc(Cl)c(F)c1)NC12CC(NC(=O)c3ccccc3-n3cccn3)(C1)C2` [Compound 839, N-{3-[2-(4-chloro-3-fluorophenoxy)acetamido]bicyclo[1.1.1]pentan-1-yl}-2-(1H-pyrazol-1-yl)benzamide], the EC50 is over 2000 nM.

On to `O=C(COc1ccc(Cl)c(F)c1)NC12CC(NC(=O)c3ccc[nH]3)(C1)C2` [Compound 307, N-{3-[2-(4-chloro-3-fluorophenoxy)acetamido]bicyclo[1.1.1]pentan-1-yl}-1H-pyrrole-2-carboxamide], for which the EC50 was in the range of 250 to 1000 nM.

Take `O=C(COc1ccc(Cl)c(F)c1)NC12CC(NC(=O)c3ccc(Cl)cn3)(C1)C2` [Compound 686, 5-chloro-N-{3-[2-(4-chloro-3-fluorophenoxy)acetamido]bicyclo[1.1.1]pentan-1-yl}pyridine-2-carboxamide]: the EC50 is under 50 nM.

In the case of `O=C(COc1ccc(F)c(F)c1)NC12CC(NC(=O)c3cnc(C(F)F)cn3)(C1)C2` [Compound 278, 5-(difluoromethyl)-N-{3-[2-(3,4-difluorophenoxy)acetamido]bicyclo[1.1.1]pentan-1-yl}pyrazine-2-carboxamide], the concentration for a half-maximal effect (EC50) was in the range of 250 to 1000 nM.

Turning to `O=C(COc1ccc(Cl)c(F)c1)NC12CC(NC(=O)c3cnc(-c4ccccc4)o3)(C1)C2` [Compound 344, N-{3-[2-(4-chloro-3-fluorophenoxy)acetamido]bicyclo[1.1.1]pentan-1-yl}-2-phenyl-1,3-oxazole-5-carboxamide], the concentration for a half-maximal effect (EC50) is under 50 nM.

In the case of `O=C(COc1ccc(Cl)c(F)c1)NC12CC(NC(=O)c3cnccn3)(C1)C2` [Compound 175, N-{3-[2-(4-chloro-3-fluorophenoxy)acetamido]bicyclo[1.1.1]pentan-1-yl}pyrazine-2-carboxamide], the EC50 was in the range of 250 to 1000 nM.

Regarding `O=C(COc1ccc(Cl)c(F)c1)NC12CC(NC(=O)c3ccc(Cl)c(F)c3)(C1)C2` [Compound 692, 4-chloro-N-{3-[2-(4-chloro-3-fluorophenoxy)acetamido]bicyclo[1.1.1]pentan-1-yl}-3-fluorobenzamide], the EC50 lay in the range of 50 to 250 nM.

On to `O=C(COc1ccc(Cl)c(F)c1)NC12CC(NC(=O)c3cnc(C4CC4)cn3)(C1)C2` [Compound 266, N-{3-[2-(4-chloro-3-fluorophenoxy)acetamido]bicyclo[1.1.1]pentan-1-yl}-5-cyclopropylpyrazine-2-carboxamide], for which the EC50 lay within 50 to 250 nM.

With `Cc1cc2c(NC34CC(NC(=O)COc5ccc(OC(F)F)cc5)(C3)C4)nccn2n1` [Compound 438, 2-[4-(difluoromethoxy)phenoxy]-N-{3-[(2-methylpyrazolo[1,5-a]pyrazin-4-yl)amino]bicyclo[1.1.1]pentan-1-yl}acetamide], the EC50 was in the range of 250 to 1000 nM.

In the case of `O=C(COc1ccc(Cl)c(F)c1)NC12CC(NC(=O)c3ccc(O)nc3)(C1)C2` [Compound 322, N-{3-[2-(4-chloro-3-fluorophenoxy)acetamido]bicyclo[1.1.1]pentan-1-yl}-6-hydroxypyridine-3-carboxamide], the EC50 was over 2000 nM.

For the compound `O=C(COc1ccc(Cl)c(F)c1)NC12CC(NC(=O)c3cncnc3)(C1)C2` [Compound 188, N-{3-[2-(4-chloro-3-fluorophenoxy)acetamido]bicyclo[1.1.1]pentan-1-yl}pyrimidine-5-carboxamide], the EC50 lay in the range of 250 to 1000 nM.

For the compound `O=C(COc1ccc(Cl)cc1)NC12CC(Nc3cc(-c4ccc(Cl)cc4)on3)(C1)C2` [Compound 265, 2-(4-chlorophenoxy)-N-(3-{[5-(4-chlorophenyl)-1,2-oxazol-3-yl]amino}bicyclo[1.1.1]pentan-1-yl)acetamide], the 50% effective concentration (EC50) is under 50 nM.

Take `O=C(COc1ccc(Cl)c(F)c1)NC12CC(NC(=O)c3ccc(C(F)F)nc3)(C1)C2` [Compound 207, N-{3-[2-(4-chloro-3-fluorophenoxy)acetamido]bicyclo[1.1.1]pentan-1-yl}-6-(difluoromethyl)pyridine-3-carboxamide]: the concentration giving a half-maximal response (EC50) fell in the range of 50 to 250 nM.

As to `O=C(COc1ccc(Cl)c(F)c1)NC12CC(NC(=O)c3ccc(-n4cncn4)cc3)(C1)C2` [Compound 783, N-{3-[2-(4-chloro-3-fluorophenoxy)acetamido]bicyclo[1.1.1]pentan-1-yl}-4-(1H-1,2,4-triazol-1-yl)benzamide], the half-maximal effective concentration (EC50) is over 2000 nM.

In the case of `CCc1csc(C(=O)NC23CC(NC(=O)COc4ccc(Cl)c(F)c4)(C2)C3)n1` [Compound 919, N-{3-[2-(4-chloro-3-fluorophenoxy)acetamido]bicyclo[1.1.1]pentan-1-yl}-4-ethyl-1,3-thiazole-2-carboxamide], the EC50 is under 50 nM.

Regarding `Cc1cc(C(=O)NC23CCC(NC(=O)COc4ccc(Cl)c(Cl)c4)(CC2)[C@@H](O)C3)on1` [Compound 759, N-{(3S)-4-[2-(3,4-dichlorophenoxy)acetamido]-3-hydroxybicyclo[2.2.2]octan-1-yl}-3-methyl-1,2-oxazole-5-carboxamide], the EC50 was under 50 nM.

For the compound `O=C(COc1ccc(Cl)c(F)c1)NC12CC(NC(=O)c3ccc(OC4COC4)nc3)(C1)C2` [Compound 237, N-{3-[2-(4-chloro-3-fluorophenoxy)acetamido]bicyclo[1.1.1]pentan-1-yl}-6-[(oxetan-3-yl)oxy]pyridine-3-carboxamide], the EC50 fell in the range of 250 to 1000 nM.

For `O=C(COc1ccc(Cl)c(F)c1)NC12CC(NC(=O)c3ccnc(CO)c3)(C1)C2` [Compound 741, N-{3-[2-(4-chloro-3-fluorophenoxy)acetamido]bicyclo[1.1.1]pentan-1-yl}-2-(hydroxymethyl)pyridine-4-carboxamide], the EC50 was over 2000 nM.

For the compound `Cn1cnc2cc(C(=O)NC34CC(NC(=O)COc5ccc(Cl)c(F)c5)(C3)C4)ccc21` [Compound 767, N-{3-[2-(4-chloro-3-fluorophenoxy)acetamido]bicyclo[1.1.1]pentan-1-yl}-1-methyl-1H-benzimidazole-5-carboxamide], the concentration for a half-maximal effect (EC50) is over 2000 nM.

On to `Cn1c(C(=O)NC23CC(NC(=O)COc4ccc(Cl)c(F)c4)(C2)C3)cc2sccc21` [Compound 841, N-{3-[2-(4-chloro-3-fluorophenoxy)acetamido]bicyclo[1.1.1]pentan-1-yl}-4-methyl-4H-thieno[3,2-b]pyrrole-5-carboxamide], for which the EC50 was 250 to 1000 nM.

For the compound `Cc1noc(C(=O)NC23CCC(NC(=O)COc4ccc(Cl)c(F)c4)(CC2)C(O)C3)n1` (centres unmarked) [Compound 503, N-{4-[2-(4-chloro-3-fluorophenoxy)acetamido]-3-hydroxybicyclo[2.2.2]octan-1-yl}-3-methyl-1,2,4-oxadiazole-5-carboxamide], the EC50 is 50 to 250 nM.

Consider `Cc1ccncc1C(=O)NC12CC(NC(=O)COc3ccc(Cl)c(F)c3)(C1)C2` [Compound 738, N-{3-[2-(4-chloro-3-fluorophenoxy)acetamido]bicyclo[1.1.1]pentan-1-yl}-4-methylpyridine-3-carboxamide], for which the EC50 is over 2000 nM.

Take `COC1CN(c2ccnc(C(=O)NC34CC(NC(=O)COc5ccc(Cl)c(F)c5)(C3)C4)c2)C1` [Compound 190, N-{3-[2-(4-chloro-3-fluorophenoxy)acetamido]bicyclo[1.1.1]pentan-1-yl}-4-(3-methoxyazetidin-1-yl)pyridine-2-carboxamide]: the half-maximal effective concentration (EC50) fell in the range of 250 to 1000 nM.
